The values that follow come from PubChem BioAssay AID1963958 (Molecular Pharmacology Branch, DTP, NCI, 2024).

Values joined by “and” are separate entries in the source; they are usually repeats but may differ in a detail not shown here. Equal entries are not always repeated. Bounds are passed on as bounds.

The test relates to MDA-MB-231 multicell spheroids, viability. Put plainly: Anticancer human tumor MDA-MB-231 cell line growth inhibition [PI3K].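 For all read-outs here: spheroids exposed to agents for seven days before reading.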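 For viability, T/C: percent of vehicle control luminescence with DMSO treated spheroids as 100%.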 To be noted: for viability, T/C: stronger effect = lower value; for IC50: curve of compound. The source says: Combinatorial screen of targeted agents with the PI3K inhibitors inavolisib, alpelisib, duvelisib, and copanlisib in multi-cell type tumor spheroids
A high-throughput screen of multi-cell type tumor spheroids was designed to identify active combinations of targeted small molecules and PI3K pathway inhibitors. Complex spheroids include a stromal component modeled by human endothelial cells (HUVEC) and fibroblasts modeled by human mesenchymal stem cells (MSCs). The concentration ranges selected for each drug and investigational agent were based upon clinically achievable concentrations if the clinical Cmax of the agent was known.
Compounds. The drugs and investigational agents: inavolisib (NSC800729), alpelisib (NSC765974), duvelisib (NSC772469), copanlisib (NSC816437), ipatasertib (NSC767898), afuresertib (NSC778305), talazoparib (NSC767125), sapanisertib (NSC764658), selumetinib (NSC741078), tovorafenib (DAY101, NSC766906), vemurafenib (NSC761431), ravoxertinib (NSC781343), sotorasib (NSC818433), MRTX1133 (NSC 836407), abemaciclib (NSC 768073), palbociclib (NSC758247), venetoclax (NSC 766270), SY5609 (NSC837396), enzalutamide (NSC755605), and darolutamide (NSC825331), were obtained from the National Cancer Institute (NCI) Developmental Therapeutics Program Chemical Repository. The FDA-approved anticancer drug set is available from the NCI Developmental Therapeutics Program. […] The stock solutions were prepared in dimethyl sulfoxide (DMSO, Sigma-Aldrich, St. Louis, MO, cat. D2650) at 800-fold the tested concentration and stored at -70 degrees C prior to their use. All drugs and investigational agents were tested over a range starting from a high concentration at or near the clinical Cmax and decreasing in half-log increments. If the clinical Cmax for an agent had not been determined, the highest concentration tested was 10 microM.
Cell Culture. All cells were maintained in an incubator at 37 degrees C and 5% CO2 with 95% humidity. The PDC lines were cultured according to standard operating procedures established by the NCI PDMR (https://pdmr.cancer.gov/sops/default.htm). All PDCs were thawed and cultured in Matrigel-coated flasks prepared with a working solution of 1X Ham's F-12 nutrient mix, without supplementation (Invitrogen, Waltham, MA, cat. 11765054), 100 U/mL penicillin-streptomycin (Invitrogen, cat. 15140122), and 2.5% Matrigel (Corning Inc., Corning, NY, cat. 354248) for the first three passages. The 354836-022-R-J1-PDC, 475296-252-R-J1-PDC, and 997726-040-R-J2-PDC lines were cultured in 6A media, which includes advanced DMEM/F-12 (Thermo Fisher Scientific, cat. 12634028), 10 mM HEPES (Thermo Fisher Scientific, cat. 15630080), 1X GlutaMAX supplement (Thermo Fisher Scientific, cat. 35050061), 0.1 mg/mL primocin (InvivoGen, San Diego, CA, cat. ant-pm-2), 10% defined fetal bovine serum, heat inactivated (HyClone Laboratories Inc., Logan, UT, cat. SH30070.03HI), 50% L-WRN conditioned media (ATCC, cat. CRL-3276), 1.25 mM N-Acetyl-L-cysteine (Sigma-Aldrich, cat. A9165), 10 mM nicotinamide (Sigma-Aldrich, cat. N0636), 1X B-27 supplement (Thermo Fisher Scientific, cat. 17504044), 1X N-2 supplement (Thermo Fisher Scientific, cat. 17502048), and 10 microM Y-27632 dihydrochloride (Tocris Bioscience, Bristol, United Kingdom, cat. 1254). The 624824-186-R-J2-PDC line was cultured in 6C/Colon 1B media, which includes all 6A media components plus 50 ng/mL human EGF recombinant protein (Thermo Fisher Scientific, cat. PHG0311). […]

The term viability, T/C denotes the result in the treated group divided by that in the control group, in per cent. As usually defined, the IC50 is the concentration needed to halve the response being measured. Take `C#Cc1c(F)ccc2cc(O)cc(-c3ncc4c(N5CC6CCC(C5)N6)nc(OCC56CCCN5CC(F)C6)nc4c3F)c12` (stereo not drawn): the IC50 was > 10000 nM. In addition, the viability, T/C (compound 0.0316 µM) was 110% [middle of 4 runs]. Also, the viability, T/C (compound 0.1 µM) is 104% [middle of 4 runs]. Also, for the setting “compound 0.316 µM”, the viability, T/C is 100% [middle of 4 runs]. Also, the viability, T/C (compound 1 µM) is 98.5% [middle of 4 runs]. The viability, T/C (compound 10 µM) is 59.5% [middle of 4 runs].

For the compound `C=CC(=O)N1CCN(c2nc(=O)n(-c3c(C)ccnc3C(C)C)c3nc(-c4c(O)cccc4F)c(F)cc23)C(C)C1` (stereo not drawn), the IC50 is > 10000 nM. Moreover, where the note is “compound 0.0316 µM”, the viability, T/C is 109% [middle of 4 runs]. The viability, T/C (compound 0.1 µM) was 101% [middle of 4 runs]. The viability, T/C (compound 0.316 µM) was 124% [middle of 4 runs]. Besides, the viability, T/C (compound 3.16 µM) is 136% [middle of 4 runs]. Also, the viability, T/C (compound 10 µM) is 127% [middle of 4 runs].

In the case of `CC1(C)CCC(Nc2ncc(C(F)(F)F)c(-c3c[nH]c4c(P(C)(C)=O)c(C#N)ccc34)n2)CN1` (stereo not drawn), the IC50 is 31.6 nM and 56.2 nM. Further, the viability, T/C (compound 0.0316 µM) is 44.8% [middle of 4 runs]. For the same compound, the viability, T/C (compound 0.1 µM) is 42.5% [middle of 4 runs]. Also, the viability, T/C (compound 0.316 µM) was 44.1% [middle of 4 runs]. Besides, the viability, T/C (compound 1 µM) is 54.3% [middle of 4 runs]. In addition, the viability, T/C (compound 3.16 µM) is 56.4% [middle of 4 runs]. Besides, the viability, T/C (compound 10 µM) is 5.5% [middle of 4 runs].

`Cn1ncc(Cl)c1-c1cc(C(=O)NC(CN)Cc2cccc(F)c2)sc1Cl` (stereo not drawn): the IC50 is 3.47 µM [middle of 4 runs]. Further, under “compound 0.0316 µM”, the viability, T/C was 111% [middle of 4 runs]. Besides, where the note is “compound 0.1 µM”, the viability, T/C was 99.8% [middle of 4 runs]. Moreover, for the setting “compound 0.316 µM”, the viability, T/C is 95.8% [middle of 4 runs]. Besides, where the note is “compound 1 µM”, the viability, T/C is 77.2% [middle of 4 runs]. Further, for the setting “compound 3.16 µM”, the viability, T/C is 52.5% [middle of 4 runs]. For the same compound, under “compound 10 µM”, the viability, T/C is 28.8% [middle of 4 runs].

Consider `Cn1nccc1Nc1nccc(-c2ccn(C(CO)c3ccc(Cl)c(F)c3)c(=O)c2)n1` (stereo not drawn), for which the IC50 is 905 nM [middle of 4 runs]. Also, the viability, T/C (compound 0.0316 µM) is 87% [middle of 4 runs]. The viability, T/C (compound 0.1 µM) is 70.7% [middle of 4 runs]. The viability, T/C (compound 0.316 µM) was 61.5% [middle of 4 runs]. Besides, where the note is “compound 1 µM”, the viability, T/C is 50.8% and 49.5% and 49.4% (2×). In addition, the viability, T/C (compound 3.16 µM) is 41.8% [middle of 4 runs]. In addition, the viability, T/C (compound 10 µM) was 30.1% [middle of 4 runs].
